Data from EP1165069B1, “ANTITUMOUR SYNERGISTIC COMPOSITION” (Pharmacia Italia S.p.A., priority 1999, dated 2000).

Tested on: disseminated L1210 murine leukemia
Assay: Antileukemic activity against disseminated L1210 murine leukemia (in vivo, iv treatment)
Design: species or system mouse
Conditions: for LTS (Long Term Survivors (>60 days) at the end the experiment) / Tox (Number of toxic deaths/number of mice) / ILS% (Increase in life span): combination at the same doses and schedule; for ILS% (Increase in life span): L1210 cells 10^5/mouse iv on day 0
Description: Combining doxorubicin and Ia at the same doses with the same schedule an increase of activity with ILS% values of 150 was observed, indicating a synergistic effect.
For these experiments Ia was solubilized in [Cremophor® /EtOH= 6.5:3.5]/[normal saline]=20/80 v/v, while standard etoposide pharmaceutical preparation and doxorubicin solubilized in water were used.

[1] = Table 1 experiment: Ia 1 mg/kg/day iv days +1,2, Etoposide 30 mg/kg/day iv day +3
[2] = Table 2 experiment: Ia 1.5 mg/kg/day iv days +1,2, Doxorubicin 13 mg/kg/day iv day +3
[3] = doxorubicin alone 13 mg/kg day +3, Ia alone 1.5 mg/kg days +1,2
[4] = etoposide alone 30 mg/kg day +3, Ia alone 1 mg/kg days +1,2

| SMILES | LTS (Long Term Survivors (>60 days) at the end the experiment) [1] | Tox (Number of toxic deaths/number of mice) [1] | ILS% (Increase in life span) [1] [%] | LTS (Long Term Survivors (>60 days) at the end the experiment) [2] | Tox (Number of toxic deaths/number of mice) [2] | ILS% (Increase in life span) [2] [%] | toxicity (in words) [3] | toxicity (in words) [4] |
| --- | --- | --- | --- | --- | --- | --- | --- | --- |
| CC(=O)[C@]1(O)Cc2c(O)c3c(c(O)c2[C@@H](O[C@H]2C[C@H](N4CC4)[C@H](OS(C)(=O)=O)[C@H](C)O2)C1)C(=O)c1ccccc1C3=O [Ia, 4-demethoxy-3'-deamino-3'-aziridinyl-4'-methansulfonyl daunorubicin] | 0/10 | 0/10 | 67 | 0/10 | 0/10 | 67 | without toxicity | without toxicity |
| COc1cc([C@@H]2c3cc4c(cc3[C@@H](O[C@@H]3O[C@@H]5CO[C@@H](C)O[C@H]5[C@H](O)[C@H]3O)[C@H]3COC(=O)[C@H]23)OCO4)cc(OC)c1O [Etoposide, etoposide] | 0/10 | 0/10 | 100 | – | – | – | – | without toxicity |
| COc1cccc2c1C(=O)c1c(O)c3c(c(O)c1C2=O)C[C@@](O)(C(=O)CO)C[C@@H]3O[C@H]1C[C@H](N)[C@H](O)[C@H](C)O1 [Doxorubicin, doxorubicin] | – | – | – | 0/10 | 0/10 | 50 | without toxicity | – |
